According to article PMC9348805, “Identification of the NRF2 transcriptional network as a therapeutic target for trigeminal neuropathic pain” (Science Advances, 2022):
pEC50: −log10 of the molar value.

Molecular target: T1, TRPA1 (Homo sapiens, UniProt O75762)
T1 construct: full-length myc-tagged TRPA1 cDNA (gift of M. Caterina), transiently expressed in HEK-293 cells; Fura-2 calcium imaging
Test: calcium imaging (Fura-2) of HEK-293 cells transiently expressing TRPA1, with vector and mutant controls
Format: cell-based

T1 sequence (O75762 whole entry): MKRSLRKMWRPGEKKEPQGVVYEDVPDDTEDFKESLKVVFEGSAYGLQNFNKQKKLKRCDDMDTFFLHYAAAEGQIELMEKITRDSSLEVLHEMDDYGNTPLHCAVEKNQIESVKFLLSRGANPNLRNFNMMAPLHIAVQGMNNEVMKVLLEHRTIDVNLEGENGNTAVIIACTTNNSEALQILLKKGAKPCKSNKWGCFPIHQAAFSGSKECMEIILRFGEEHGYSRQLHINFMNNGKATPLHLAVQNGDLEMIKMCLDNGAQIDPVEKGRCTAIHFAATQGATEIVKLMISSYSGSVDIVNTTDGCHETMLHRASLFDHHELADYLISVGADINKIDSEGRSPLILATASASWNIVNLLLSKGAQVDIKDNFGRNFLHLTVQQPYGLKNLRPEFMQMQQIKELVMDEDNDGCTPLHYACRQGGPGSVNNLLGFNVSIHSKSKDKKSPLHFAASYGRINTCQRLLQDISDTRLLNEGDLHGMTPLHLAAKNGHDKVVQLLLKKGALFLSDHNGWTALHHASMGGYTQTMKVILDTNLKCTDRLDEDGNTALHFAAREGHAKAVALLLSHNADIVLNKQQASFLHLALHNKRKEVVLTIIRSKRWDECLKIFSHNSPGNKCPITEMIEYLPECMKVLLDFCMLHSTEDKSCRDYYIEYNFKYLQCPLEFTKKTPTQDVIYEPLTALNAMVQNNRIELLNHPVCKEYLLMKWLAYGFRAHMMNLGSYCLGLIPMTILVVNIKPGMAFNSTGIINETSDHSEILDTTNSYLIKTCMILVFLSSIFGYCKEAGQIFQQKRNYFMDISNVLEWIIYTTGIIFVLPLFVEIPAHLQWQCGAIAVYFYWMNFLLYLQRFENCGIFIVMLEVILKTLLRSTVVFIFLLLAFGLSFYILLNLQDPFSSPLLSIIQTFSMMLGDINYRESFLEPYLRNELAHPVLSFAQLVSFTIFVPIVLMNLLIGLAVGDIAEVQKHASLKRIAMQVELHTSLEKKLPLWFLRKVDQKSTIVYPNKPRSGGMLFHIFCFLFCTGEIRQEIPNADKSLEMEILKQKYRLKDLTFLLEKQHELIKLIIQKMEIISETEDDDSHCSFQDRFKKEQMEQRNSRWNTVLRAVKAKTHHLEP

## CCCCCC(O)C=CC=O (stereo not shown) [4-HNE]
  pEC50: 4.32
